Test results: publication PMC6901909, “Synergy Pattern of Short Cationic Antimicrobial Peptides Against Multidrug-Resistant Pseudomonas aeruginosa” (Frontiers in Microbiology, 2019)
≈ marks a conversion by molar mass, not a printed value. Peptide text beside a SMILES is read from it.

Key:
Assay in all cases: microbe, parasite or virus in culture
Type in all cases: cell-based, Pseudomonas aeruginosa
MDR P. aeruginosa PA 919 = details: MDR PA 919, 18 h
Method: (§1) We selected six different P. aeruginosa isolates that were described as MDR and had been isolated from clinical and municipal waste water ([Schwartz et al., 2006]). The minimal inhibitory concentration (MIC) was determined in a microdilution assay using Mueller-Hinton (MH) broth following a previously published protocol ([Wiegand et al., 2008]). Briefly, a twofold serial dilution of the antibiotics and peptides were prepared and added to a bacteria solution, resulting in 2–5 10^5 CFU/ml. The microtiter plates (polypropylene, Corning) were incubated for 18 h at 37°C and MICs were taken visually.

MDR P. aeruginosa PA253 = details: MDR PA253, 18 h
Method: as §1

P. aeruginosa PA01-wt = details: -wt, 18 h
Method: as §1

MDR P. aeruginosa PA 910 = details: MDR PA 910, 18 h
Method: as §1

| SMILES | MIC against MDR isolates of PA, PA919 (MDR P. aeruginosa PA 919) [µM] | MIC against MDR isolates of PA, PA253 (MDR P. aeruginosa PA253) [µM] | MIC against PA01 wt (P. aeruginosa PA01-wt) | MIC against PA910 in μM (peptides, Table 4) (MDR P. aeruginosa PA 910) [µM] |
| --- | --- | --- | --- | --- |
| CC[C@H](C)[C@H](NC(=O)[C@H](CCCNC(=N)N)NC(=O)[C@H](C)NC(=O)CNC(=O)[C@@H](N)CCCNC(=N)N)C(=O)N[C@H](C(=O)N[C@H](C(=O)N[C@H](C(=O)N[C@@H](CCCNC(=N)N)C(=O)N[C@H](C(=O)N[C@@H](C)C(=O)N[C@@H](CCCNC(=N)N)C(N)=O)C(C)C)[C@@H](C)CC)C(C)C)C(C)C [Peptide G2] (H-RGARIVVIRVAR-NH2) | 16 | 32 | 32 µM (≈ 43.7 µg/mL) | – |
| CC[C@H](C)[C@H](NC(=O)[C@H](CCCNC(=N)N)NC(=O)[C@H](Cc1c[nH]c2ccccc12)NC(=O)[C@H](CCCNC(=N)N)NC(=O)[C@@H](N)CCCNC(=N)N)C(=O)N[C@H](C(=O)N[C@H](C(=O)N[C@H](C(=O)N[C@@H](CCCNC(=N)N)C(=O)N[C@H](C(=O)N[C@@H](CCCNC(=N)N)C(=O)N[C@@H](CCCNC(=N)N)C(N)=O)C(C)C)[C@@H](C)CC)C(C)C)C(C)C [Sub 3] (H-RRWRIVVIRVRR-NH2) | 16 | 8 | 8 µM (≈ 13.3 µg/mL) | – |
| CC[C@H](C)[C@H](N)C(=O)N[C@@H](CC(C)C)C(=O)N[C@@H](CCCCN)C(=O)N[C@@H](Cc1c[nH]c2ccccc12)C(=O)N[C@@H](CCCCN)C(=O)N[C@@H](CCCCN)C(=O)NCC(=O)N[C@@H](Cc1c[nH]c2ccccc12)C(=O)N[C@@H](Cc1c[nH]c2ccccc12)C(=O)N[C@@H](CCCCN)C(=O)N[C@@H](Cc1c[nH]c2ccccc12)C(=O)N[C@@H](Cc1ccccc1)C(=O)N[C@@H](CCCNC(=N)N)C(N)=O [Indopt 8] (H-ILKWKKGWWKWFR-NH2) | 16 | 8 | 4 µM (≈ 7.45 µg/mL) | – |
| CC[C@H](C)[C@H](NC(=O)[C@H](CCCCN)NC(=O)[C@H](CCCNC(=N)N)NC(=O)[C@H](Cc1c[nH]c2ccccc12)NC(=O)[C@H](Cc1c[nH]c2ccccc12)NC(=O)[C@@H](N)CCCNC(=N)N)C(=O)N[C@@H](Cc1c[nH]c2ccccc12)C(=O)N[C@@H](CCCCN)C(=O)N[C@@H](Cc1c[nH]c2ccccc12)C(N)=O [LOP1] (H-RWWRKIWKW-NH2) | 2 to 4 | 8 | 2 µM (≈ 2.89 µg/mL) | – |
| CC[C@H](C)[C@H](NC(=O)[C@H](CCCNC(=N)N)NC(=O)[C@H](Cc1c[nH]c2ccccc12)NC(=O)[C@H](CC(C)C)NC(=O)[C@@H](N)CCCNC(=N)N)C(=O)N[C@H](C(=O)N[C@H](C(=O)N[C@H](C(=O)N[C@@H](CCCNC(=N)N)C(=O)N[C@H](C(=O)N[C@@H](C)C(=O)N[C@@H](CCCNC(=N)N)C(N)=O)C(C)C)[C@@H](C)CC)C(C)C)C(C)C [Peptide W3] (H-RLWRIVVIRVAR-NH2) | – | – | – | 32 (≈ 49.2 µg/mL) |
| CC[C@H](C)[C@H](NC(=O)[C@H](CCCNC(=N)N)NC(=O)[C@H](Cc1c[nH]c2ccccc12)NC(=O)[C@H](CCCNC(=N)N)NC(=O)[C@@H](N)C(C)C)C(=O)N[C@@H](CCCNC(=N)N)C(=O)N[C@H](C(=O)N[C@@H](C)C(=O)N[C@H](C(=O)N[C@H](C(=O)N[C@@H](CCCNC(=N)N)C(=O)N[C@@H](C)C(N)=O)[C@@H](C)CC)C(C)C)C(C)C [S-W3] (H-VRWRIRVAVIRA-NH2) | – | – | – | 16 (≈ 23.9 µg/mL) |
| CC[C@H](C)[C@H](NC(=O)[C@H](CCCNC(=N)N)NC(=O)[C@H](C)NC(=O)[C@H](CCCNC(=N)N)NC(=O)[C@@H](N)CCCNC(=N)N)C(=O)N[C@H](C(=O)N[C@H](C(=O)N[C@H](C(=O)N[C@@H](CCCNC(=N)N)C(=O)N[C@H](C(=O)N[C@@H](C)C(=O)N[C@@H](CCCNC(=N)N)C(N)=O)C(C)C)[C@@H](C)CC)C(C)C)C(C)C [Peptide R2] (H-RRARIVVIRVAR-NH2) | 16 | 32 | 32 µM (≈ 46.8 µg/mL) | – |
| CC[C@H](C)[C@H](NC(=O)[C@H](CCCNC(=N)N)NC(=O)[C@H](CC(C)C)NC(=O)[C@H](CCCNC(=N)N)NC(=O)[C@@H](N)C(C)C)C(=O)N[C@@H](CCCNC(=N)N)C(=O)N[C@H](C(=O)N[C@@H](C)C(=O)N[C@H](C(=O)N[C@H](C(=O)N[C@@H](CCCNC(=N)N)C(=O)N[C@@H](C)C(N)=O)[C@@H](C)CC)C(C)C)C(C)C [Bac034] (H-VRLRIRVAVIRA-NH2) | 32 | 64 | 32 µM (≈ 45.5 µg/mL) | – |
| CC[C@H](C)[C@H](N)C(=O)N[C@@H](CC(C)C)C(=O)N[C@@H](CCCCN)C(=O)N[C@@H](Cc1c[nH]c2ccccc12)C(=O)N[C@@H](CCCCN)C(=O)N[C@H](C(=O)N[C@@H](CCCCN)C(=O)N[C@@H](Cc1c[nH]c2ccccc12)C(=O)N[C@@H](Cc1c[nH]c2ccccc12)C(=O)N[C@@H](CCCCN)C(=O)N[C@@H](Cc1c[nH]c2ccccc12)C(=O)N[C@@H](Cc1ccccc1)C(=O)N[C@@H](CCCNC(=N)N)C(N)=O)[C@@H](C)O [Indopt 11] (H-ILKWKTKWWKWFR-NH2) | 16 | 4 | 2 µM (≈ 3.81 µg/mL) | – |
| CC[C@H](C)[C@H](N)C(=O)N[C@@H](CC(C)C)C(=O)N[C@@H](CCCCN)C(=O)N[C@@H](Cc1c[nH]c2ccccc12)C(=O)N[C@@H](CCCCN)C(=O)N[C@@H](CCCNC(=N)N)C(=O)N[C@@H](CCCCN)C(=O)N[C@@H](Cc1c[nH]c2ccccc12)C(=O)N[C@@H](Cc1c[nH]c2ccccc12)C(=O)N[C@@H](CCCCN)C(=O)N[C@@H](Cc1c[nH]c2ccccc12)C(=O)N[C@@H](CCCNC(=N)N)C(=O)N[C@@H](CCCNC(=N)N)C(N)=O [Indopt 9] (H-ILKWKRKWWKWRR-NH2) | 16 | 4 | 1 (1) μM | – |
